In the supplement of paper PMC10307832:

How the values were obtained:
Experiment in all cases: relative viability (nuclei count vs DMSO), 5 days (fraction); higher = more cells survive
NCI-H1395 = test system: NCI-H1395
Procedure, shortened: (§1)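 Relative viability was taken as the ratio of nuclei in treated wells to nuclei in vehicle wells. Lung cancer cell lines in 1536-well plates received compounds by pin tool one day after seeding, either one drug alone or a fixed anchor-drug dose plus five library-drug doses (not always all listed) in √10 steps. Nuclei were counted on 4× images after 5 days of treatment, and values are medians of duplicate plates.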

SK-LU-1 = test system: SK-LU-1
Procedure, shortened: as §1

NCI-H838 = test system: NCI-H838
Procedure, shortened: as §1

NCI-H1355 = test system: NCI-H1355
Procedure, shortened: as §1

SW 1573 = test system: SW 1573
Procedure, shortened: as §1

NCI-H650 = test system: NCI-H650
Procedure, shortened: as §1

NCI-H2126 = test system: NCI-H2126
Procedure, shortened: as §1

NCI-H322M = test system: NCI-H322M
Procedure, shortened: as §1

LCLC-97TM1 = test system: LCLC-97TM1
Procedure, shortened: as §1

NCI-H2347 = test system: NCI-H2347
Procedure, shortened: as §1

BEN = test system: BEN
Procedure, shortened: as §1

NCI-H1944 = test system: NCI-H1944
Procedure, shortened: as §1

201T = test system: 201T
Procedure, shortened: as §1

NCI-H3122 = test system: NCI-H3122
Procedure, shortened: as §1

HOP-62 = test system: HOP-62
Procedure, shortened: as §1

HCC-78 = test system: HCC-78
Procedure, shortened: as §1

NCI-H1793 = test system: NCI-H1793
Procedure, shortened: as §1

LOU-NH91 = test system: LOU-NH91
Procedure, shortened: as §1

NCI-H1651 = test system: NCI-H1651
Procedure, shortened: as §1

NCI-H441 = test system: NCI-H441
Procedure, shortened: as §1

NCI-H1915 = test system: NCI-H1915
Procedure, shortened: as §1

CCNC(=O)c1noc(-c2cc(C(C)C)c(O)cc2O)c1-c1ccc(CN2CCOCC2)cc1 [Luminespib] + Nc1ncn([C@H]2C[C@H](O)[C@@H](CO)O2)c(=O)n1 [Decitabine] (partner 2 µM)
relative viability (NCI-H1395; first compound 0.002 µM): 0.745 | relative viability (NCI-H1395; first compound 0.006325 µM): 0.694 | relative viability (NCI-H1395; first compound 0.02 µM): 0.634 | relative viability (NCI-H1395; first compound 0.06325 µM): 0.382 | relative viability (NCI-H1395; first compound 0.2 µM): 0.357 | relative viability (SK-LU-1; first compound 0.002 µM): 0.725 | relative viability (SK-LU-1; first compound 0.006325 µM): 0.462 | relative viability (SK-LU-1; first compound 0.02 µM): 0.547 | relative viability (SK-LU-1; first compound 0.06325 µM): 0.198 | relative viability (SK-LU-1; first compound 0.2 µM): 0.216 | relative viability (NCI-H838; first compound 0.002 µM): 0.495 | relative viability (NCI-H838; first compound 0.006325 µM): 0.491 | relative viability (NCI-H838; first compound 0.02 µM): 0.422 | relative viability (NCI-H838; first compound 0.06325 µM): 0.176 | relative viability (NCI-H838; first compound 0.2 µM): 0.193 | relative viability (NCI-H1355; first compound 0.002 µM): 0.359 | relative viability (NCI-H1355; first compound 0.006325 µM): 0.354 | relative viability (NCI-H1355; first compound 0.02 µM): 0.334 | relative viability (NCI-H1355; first compound 0.06325 µM): 0.346 | relative viability (NCI-H1355; first compound 0.2 µM): 0.243 | relative viability (SW 1573; first compound 0.002 µM): 0.569 | relative viability (SW 1573; first compound 0.006325 µM): 0.456 | relative viability (SW 1573; first compound 0.02 µM): 0.159 | relative viability (SW 1573; first compound 0.06325 µM): 0.072 | relative viability (SW 1573; first compound 0.2 µM): 0.0827 | relative viability (NCI-H650; first compound 0.002 µM): 0.282 | relative viability (NCI-H650; first compound 0.006325 µM): 0.354 | relative viability (NCI-H650; first compound 0.02 µM): 0.307 | relative viability (NCI-H650; first compound 0.06325 µM): 0.252 | relative viability (NCI-H650; first compound 0.2 µM): 0.0854 | relative viability (NCI-H2126; first compound 0.002 µM): 0.573 | relative viability (NCI-H2126; first compound 0.006325 µM): 0.587 | relative viability (NCI-H2126; first compound 0.06325 µM): 0.593 | relative viability (NCI-H2126; first compound 0.2 µM): 0.507 | relative viability (NCI-H322M; first compound 0.002 µM): 0.681 | relative viability (NCI-H322M; first compound 0.006325 µM): 0.624 | relative viability (NCI-H322M; first compound 0.02 µM): 0.711 | relative viability (NCI-H322M; first compound 0.06325 µM): 0.509 | relative viability (NCI-H322M; first compound 0.2 µM): 0.499 | relative viability (LCLC-97TM1; first compound 0.002 µM): 0.249 | relative viability (LCLC-97TM1; first compound 0.006325 µM): 0.258 | relative viability (LCLC-97TM1; first compound 0.06325 µM): 0.233 | relative viability (LCLC-97TM1; first compound 0.2 µM): 0.154 | relative viability (NCI-H2347; first compound 0.002 µM): 0.603 | relative viability (NCI-H2347; first compound 0.006325 µM): 0.567 | relative viability (NCI-H2347; first compound 0.02 µM): 0.656 | relative viability (NCI-H2347; first compound 0.06325 µM): 0.431 | relative viability (NCI-H2347; first compound 0.2 µM): 0.373 | relative viability (BEN; first compound 0.002 µM): 0.84 | relative viability (BEN; first compound 0.006325 µM): 0.644 | relative viability (BEN; first compound 0.02 µM): 0.458 | relative viability (BEN; first compound 0.06325 µM): 0.306 | relative viability (BEN; first compound 0.2 µM): 0.294 | relative viability (NCI-H1944; first compound 0.002 µM): 0.493 | relative viability (NCI-H1944; first compound 0.006325 µM): 0.454 | relative viability (NCI-H1944; first compound 0.02 µM): 0.405 | relative viability (NCI-H1944; first compound 0.06325 µM): 0.405 | relative viability (NCI-H1944; first compound 0.2 µM): 0.415 | relative viability (201T; first compound 0.002 µM): 0.832 | relative viability (201T; first compound 0.006325 µM): 0.867 | relative viability (201T; first compound 0.02 µM): 0.844 | relative viability (201T; first compound 0.06325 µM): 0.811 | relative viability (201T; first compound 0.2 µM): 0.827 | relative viability (NCI-H3122; first compound 0.002 µM): 0.474 | relative viability (NCI-H3122; first compound 0.006325 µM): 0.413 | relative viability (NCI-H3122; first compound 0.02 µM): 0.29 | relative viability (NCI-H3122; first compound 0.06325 µM): 0.418 | relative viability (NCI-H3122; first compound 0.2 µM): 0.403 | relative viability (HOP-62; first compound 0.002 µM): 0.219 | relative viability (HOP-62; first compound 0.006325 µM): 0.297 | relative viability (HOP-62; first compound 0.02 µM): 0.267 | relative viability (HOP-62; first compound 0.06325 µM): 0.223 | relative viability (HOP-62; first compound 0.2 µM): 0.174 | relative viability (HCC-78; first compound 0.002 µM): 0.644 | relative viability (HCC-78; first compound 0.006325 µM): 0.611 | relative viability (HCC-78; first compound 0.02 µM): 0.666 | relative viability (HCC-78; first compound 0.06325 µM): 0.725 | relative viability (HCC-78; first compound 0.2 µM): 0.448 | relative viability (NCI-H1793; first compound 0.002 µM): 0.499 | relative viability (NCI-H1793; first compound 0.006325 µM): 0.457 | relative viability (NCI-H1793; first compound 0.02 µM): 0.369 | relative viability (NCI-H1793; first compound 0.06325 µM): 0.151 | relative viability (NCI-H1793; first compound 0.2 µM): 0.185 | relative viability (LOU-NH91; first compound 0.002 µM): 0.8 | relative viability (LOU-NH91; first compound 0.006325 µM): 0.844 | relative viability (LOU-NH91; first compound 0.02 µM): 0.686 | relative viability (LOU-NH91; first compound 0.06325 µM): 0.382 | relative viability (LOU-NH91; first compound 0.2 µM): 0.436 | relative viability (NCI-H1651; first compound 0.002 µM): 0.612 | relative viability (NCI-H1651; first compound 0.006325 µM): 0.553 | relative viability (NCI-H1651; first compound 0.02 µM): 0.594 | relative viability (NCI-H1651; first compound 0.06325 µM): 0.469 | relative viability (NCI-H1651; first compound 0.2 µM): 0.226 | relative viability (NCI-H441; first compound 0.002 µM): 0.255 | relative viability (NCI-H441; first compound 0.006325 µM): 0.26 | relative viability (NCI-H441; first compound 0.02 µM): 0.184 | relative viability (NCI-H441; first compound 0.06325 µM): 0.155 | relative viability (NCI-H441; first compound 0.2 µM): 0.134 | relative viability (NCI-H1915; first compound 0.002 µM): 0.258 | relative viability (NCI-H1915; first compound 0.006325 µM): 0.278 | relative viability (NCI-H1915; first compound 0.02 µM): 0.254 | relative viability (NCI-H1915; first compound 0.06325 µM): 0.24 | relative viability (NCI-H1915; first compound 0.2 µM): 0.21
